Results taken from patent publication US10479786B2, “Protein kinase inhibitors” (Princeton Drug Discovery Inc, priority 2016, dated 2019).

Key:
[1] = target: T1, PIK3CA/PIK3R1 (Homo sapiens, UniProt P42336); assay: Off-chip Mobility Shift Assay, kinase inhibition; assay type: biochemical; conditions: at 10 nM; recombinant PIK3CA/PIK3R1
T1 construct: purchased Carna Biosciences, Inc

[2] = target: T2, ABL(E255K) (Homo sapiens, UniProt P00519, E255K); assay: Off-chip Mobility Shift Assay, kinase inhibition; assay type: biochemical; conditions: recombinant ABL(E255K); for inhibition at 0.001 µM: at 1 nM; for inhibition at 0.01 µM: at 10 nM
T2 construct: purchased Carna Biosciences, Inc
T2 sequence (P00519 whole entry E255K): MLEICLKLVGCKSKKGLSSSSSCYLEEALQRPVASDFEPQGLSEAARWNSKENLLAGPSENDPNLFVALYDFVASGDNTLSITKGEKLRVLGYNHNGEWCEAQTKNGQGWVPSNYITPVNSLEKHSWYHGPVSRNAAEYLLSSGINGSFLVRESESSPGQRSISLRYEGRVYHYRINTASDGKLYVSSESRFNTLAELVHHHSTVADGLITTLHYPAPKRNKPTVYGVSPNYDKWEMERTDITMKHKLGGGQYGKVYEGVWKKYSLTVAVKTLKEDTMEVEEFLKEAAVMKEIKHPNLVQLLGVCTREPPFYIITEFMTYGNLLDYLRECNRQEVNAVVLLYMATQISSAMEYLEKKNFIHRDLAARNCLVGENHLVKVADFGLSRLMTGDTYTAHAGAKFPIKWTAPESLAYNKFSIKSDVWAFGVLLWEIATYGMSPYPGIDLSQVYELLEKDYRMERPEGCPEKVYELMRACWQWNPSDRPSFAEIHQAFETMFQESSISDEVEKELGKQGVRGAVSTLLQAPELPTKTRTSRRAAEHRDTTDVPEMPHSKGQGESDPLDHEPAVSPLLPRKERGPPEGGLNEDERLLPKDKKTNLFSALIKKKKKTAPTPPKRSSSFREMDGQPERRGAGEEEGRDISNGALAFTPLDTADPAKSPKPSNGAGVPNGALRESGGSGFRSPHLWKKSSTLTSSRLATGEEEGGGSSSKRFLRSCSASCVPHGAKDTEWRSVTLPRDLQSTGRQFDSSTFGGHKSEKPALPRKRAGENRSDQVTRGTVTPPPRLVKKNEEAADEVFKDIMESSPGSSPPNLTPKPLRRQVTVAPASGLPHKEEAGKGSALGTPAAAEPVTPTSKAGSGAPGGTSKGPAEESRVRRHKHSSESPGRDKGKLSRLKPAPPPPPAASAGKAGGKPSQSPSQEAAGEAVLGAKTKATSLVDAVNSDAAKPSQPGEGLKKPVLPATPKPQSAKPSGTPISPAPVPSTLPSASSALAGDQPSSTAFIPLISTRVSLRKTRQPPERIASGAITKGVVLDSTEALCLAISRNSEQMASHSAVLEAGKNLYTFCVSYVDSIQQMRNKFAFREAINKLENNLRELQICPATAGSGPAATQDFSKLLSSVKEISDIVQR

[3] = Metabolic stability in human liver microsomes; assay type: in vitro ADME; conditions: for In vitro t1/2: 1 μM, human liver microsomes 0.5 mg/mL, NADPH and UDPGA, 37° C.; for metabolic stability compared to dasatinib: human liver microsomes
Method: FIG. 1. Metabolic stability of compounds in human liver microsomal incubations. […] Concentrations at specified times were determined by LC-MS/MS.
The incubation reactions at various time points were quenched by adding 2× volumes of acetonitrile containing 100 nM reserpine. The quenched incubation samples were centrifuged at 4000 RPM for 10 min, and the supernatants injected for LC/MS/MS analysis. LC/MS/MS analysis was carried out on a AB Sciex 4000 Q Trap LC/MS/MS system coupled with Shimadzu Prominence UFLCXR 20 series (including a CBM-20A controller, two LC-20ADXR solvent delivery units, SIL-20AC HT autosampler, CTO-20A column oven, and a SPD-20A UV detector).

[4] = target: T3, EPHA1 (Homo sapiens, UniProt P21709); assay: Off-chip Mobility Shift Assay, kinase inhibition; assay type: biochemical; conditions: at 10 nM; recombinant EPHA1
T3 construct: purchased Carna Biosciences, Inc
T3 sequence (P21709 26-976): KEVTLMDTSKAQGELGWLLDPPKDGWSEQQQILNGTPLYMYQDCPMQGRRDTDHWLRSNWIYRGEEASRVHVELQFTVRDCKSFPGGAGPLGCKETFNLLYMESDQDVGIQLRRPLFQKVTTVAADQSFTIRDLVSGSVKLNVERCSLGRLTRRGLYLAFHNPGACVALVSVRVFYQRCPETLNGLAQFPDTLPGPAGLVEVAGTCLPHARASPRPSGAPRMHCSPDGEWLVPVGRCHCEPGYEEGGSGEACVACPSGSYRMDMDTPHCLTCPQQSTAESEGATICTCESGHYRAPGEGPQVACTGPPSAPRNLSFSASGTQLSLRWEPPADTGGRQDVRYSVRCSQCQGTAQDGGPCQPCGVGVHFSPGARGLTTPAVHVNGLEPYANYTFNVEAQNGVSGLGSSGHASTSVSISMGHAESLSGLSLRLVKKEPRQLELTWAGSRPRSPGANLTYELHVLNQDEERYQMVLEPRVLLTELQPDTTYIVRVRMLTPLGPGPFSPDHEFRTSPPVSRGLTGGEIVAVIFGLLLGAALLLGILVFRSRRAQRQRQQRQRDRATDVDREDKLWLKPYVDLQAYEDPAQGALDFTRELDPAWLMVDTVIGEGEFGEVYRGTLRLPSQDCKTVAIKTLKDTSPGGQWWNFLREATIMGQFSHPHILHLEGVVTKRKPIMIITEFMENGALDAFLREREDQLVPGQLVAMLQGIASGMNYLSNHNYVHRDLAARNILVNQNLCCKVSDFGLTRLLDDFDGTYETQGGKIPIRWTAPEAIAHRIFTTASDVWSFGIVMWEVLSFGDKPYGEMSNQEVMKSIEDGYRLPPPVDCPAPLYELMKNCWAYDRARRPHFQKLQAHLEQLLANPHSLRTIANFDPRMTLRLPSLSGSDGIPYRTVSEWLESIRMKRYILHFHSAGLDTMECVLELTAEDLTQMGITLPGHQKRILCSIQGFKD

[5] = target: T4, FRK (Homo sapiens, UniProt P42685); assay: Off-chip Mobility Shift Assay, kinase inhibition; assay type: biochemical; conditions: at 10 nM; recombinant FRK
T4 construct: purchased Carna Biosciences, Inc
T4 sequence (P42685 whole entry): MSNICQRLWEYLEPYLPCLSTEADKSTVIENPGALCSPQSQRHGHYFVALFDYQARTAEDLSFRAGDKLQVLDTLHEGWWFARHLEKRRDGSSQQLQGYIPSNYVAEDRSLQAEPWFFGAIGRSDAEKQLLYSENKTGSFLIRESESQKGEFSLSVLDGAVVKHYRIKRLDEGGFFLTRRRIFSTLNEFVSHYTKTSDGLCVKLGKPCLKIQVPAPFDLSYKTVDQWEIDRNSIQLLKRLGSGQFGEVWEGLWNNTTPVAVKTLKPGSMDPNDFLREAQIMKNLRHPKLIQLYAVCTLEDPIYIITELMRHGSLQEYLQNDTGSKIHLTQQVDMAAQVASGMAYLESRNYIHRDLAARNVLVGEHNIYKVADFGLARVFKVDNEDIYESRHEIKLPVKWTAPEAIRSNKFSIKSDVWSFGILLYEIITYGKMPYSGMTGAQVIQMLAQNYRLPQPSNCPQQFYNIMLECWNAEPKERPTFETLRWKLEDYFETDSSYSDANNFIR

[6] = target: T5, FGR (Homo sapiens, UniProt P09769); assay: Off-chip Mobility Shift Assay, kinase inhibition; assay type: biochemical; conditions: at 10 nM; recombinant FGR; read-out: inhibition
T5 construct: purchased Carna Biosciences, Inc
T5 sequence (P09769 whole entry): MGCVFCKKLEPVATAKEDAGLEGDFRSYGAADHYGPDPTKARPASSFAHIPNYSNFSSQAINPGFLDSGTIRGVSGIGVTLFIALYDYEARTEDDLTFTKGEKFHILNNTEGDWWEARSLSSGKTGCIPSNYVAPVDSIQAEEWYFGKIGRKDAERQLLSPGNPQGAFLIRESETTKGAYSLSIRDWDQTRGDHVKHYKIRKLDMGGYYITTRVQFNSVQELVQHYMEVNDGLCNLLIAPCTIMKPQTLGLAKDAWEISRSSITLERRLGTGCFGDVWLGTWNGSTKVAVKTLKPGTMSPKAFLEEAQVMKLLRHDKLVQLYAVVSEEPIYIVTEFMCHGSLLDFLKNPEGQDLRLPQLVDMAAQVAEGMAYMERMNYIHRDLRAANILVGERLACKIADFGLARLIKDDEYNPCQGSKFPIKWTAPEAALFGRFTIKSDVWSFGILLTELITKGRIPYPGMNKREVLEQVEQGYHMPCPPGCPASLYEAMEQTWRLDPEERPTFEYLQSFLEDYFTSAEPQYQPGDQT

[7] = target: T6, TEC (Homo sapiens, UniProt P42680); assay: Off-chip Mobility Shift Assay, kinase inhibition; assay type: biochemical; conditions: at 1 nM; recombinant TEC
T6 construct: purchased Carna Biosciences, Inc
T6 sequence (P42680 1-631): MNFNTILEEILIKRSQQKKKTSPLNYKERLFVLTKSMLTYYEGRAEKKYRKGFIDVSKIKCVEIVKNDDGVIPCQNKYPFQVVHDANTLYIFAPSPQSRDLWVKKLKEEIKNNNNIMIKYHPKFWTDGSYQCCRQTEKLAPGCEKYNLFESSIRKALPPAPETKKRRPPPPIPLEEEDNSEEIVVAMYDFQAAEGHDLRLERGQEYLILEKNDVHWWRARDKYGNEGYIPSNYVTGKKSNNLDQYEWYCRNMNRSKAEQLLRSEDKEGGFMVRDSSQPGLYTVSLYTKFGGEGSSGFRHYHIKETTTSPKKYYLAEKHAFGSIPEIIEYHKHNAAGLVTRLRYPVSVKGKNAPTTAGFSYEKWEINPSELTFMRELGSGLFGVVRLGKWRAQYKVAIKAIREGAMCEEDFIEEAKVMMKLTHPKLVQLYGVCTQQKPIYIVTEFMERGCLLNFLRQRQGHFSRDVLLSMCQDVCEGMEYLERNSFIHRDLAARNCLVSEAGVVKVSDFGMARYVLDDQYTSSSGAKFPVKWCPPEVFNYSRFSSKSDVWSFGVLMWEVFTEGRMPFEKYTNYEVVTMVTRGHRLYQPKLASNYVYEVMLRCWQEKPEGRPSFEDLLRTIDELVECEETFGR

[8] = target: T7, YES (Homo sapiens, UniProt P07947); assay: Off-chip Mobility Shift Assay, kinase inhibition; assay type: biochemical; conditions: recombinant YES; for inhibition at 0.001 µM: at 1 nM; for inhibition at 0.01 µM: at 10 nM
T7 construct: purchased Carna Biosciences, Inc
T7 sequence (P07947 whole entry): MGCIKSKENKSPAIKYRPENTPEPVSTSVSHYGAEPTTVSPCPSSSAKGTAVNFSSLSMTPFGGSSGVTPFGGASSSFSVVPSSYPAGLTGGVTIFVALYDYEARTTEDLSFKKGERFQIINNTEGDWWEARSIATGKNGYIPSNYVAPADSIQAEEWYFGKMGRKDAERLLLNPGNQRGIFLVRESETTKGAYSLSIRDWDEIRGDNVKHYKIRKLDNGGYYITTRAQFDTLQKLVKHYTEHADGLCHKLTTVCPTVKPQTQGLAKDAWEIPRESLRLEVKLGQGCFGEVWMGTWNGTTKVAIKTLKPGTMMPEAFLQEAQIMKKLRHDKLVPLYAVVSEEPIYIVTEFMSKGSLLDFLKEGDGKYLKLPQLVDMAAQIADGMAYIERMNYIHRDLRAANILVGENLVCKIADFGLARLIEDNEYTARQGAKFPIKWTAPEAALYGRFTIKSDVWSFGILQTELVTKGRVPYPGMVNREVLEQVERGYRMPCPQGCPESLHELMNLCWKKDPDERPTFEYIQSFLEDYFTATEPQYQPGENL

[9] = tested on: SU-DHL-4; assay: Cell inhibition assay (PrestoBlue, 48 h); assay type: cell-based; conditions: Homo sapiens, SU-DHL-4, 48 h, SU-DHL-4 diffuse large B-cell lymphoma cells, read-out: IC50, inhibition of growth

T1 sequence (P42336 whole entry): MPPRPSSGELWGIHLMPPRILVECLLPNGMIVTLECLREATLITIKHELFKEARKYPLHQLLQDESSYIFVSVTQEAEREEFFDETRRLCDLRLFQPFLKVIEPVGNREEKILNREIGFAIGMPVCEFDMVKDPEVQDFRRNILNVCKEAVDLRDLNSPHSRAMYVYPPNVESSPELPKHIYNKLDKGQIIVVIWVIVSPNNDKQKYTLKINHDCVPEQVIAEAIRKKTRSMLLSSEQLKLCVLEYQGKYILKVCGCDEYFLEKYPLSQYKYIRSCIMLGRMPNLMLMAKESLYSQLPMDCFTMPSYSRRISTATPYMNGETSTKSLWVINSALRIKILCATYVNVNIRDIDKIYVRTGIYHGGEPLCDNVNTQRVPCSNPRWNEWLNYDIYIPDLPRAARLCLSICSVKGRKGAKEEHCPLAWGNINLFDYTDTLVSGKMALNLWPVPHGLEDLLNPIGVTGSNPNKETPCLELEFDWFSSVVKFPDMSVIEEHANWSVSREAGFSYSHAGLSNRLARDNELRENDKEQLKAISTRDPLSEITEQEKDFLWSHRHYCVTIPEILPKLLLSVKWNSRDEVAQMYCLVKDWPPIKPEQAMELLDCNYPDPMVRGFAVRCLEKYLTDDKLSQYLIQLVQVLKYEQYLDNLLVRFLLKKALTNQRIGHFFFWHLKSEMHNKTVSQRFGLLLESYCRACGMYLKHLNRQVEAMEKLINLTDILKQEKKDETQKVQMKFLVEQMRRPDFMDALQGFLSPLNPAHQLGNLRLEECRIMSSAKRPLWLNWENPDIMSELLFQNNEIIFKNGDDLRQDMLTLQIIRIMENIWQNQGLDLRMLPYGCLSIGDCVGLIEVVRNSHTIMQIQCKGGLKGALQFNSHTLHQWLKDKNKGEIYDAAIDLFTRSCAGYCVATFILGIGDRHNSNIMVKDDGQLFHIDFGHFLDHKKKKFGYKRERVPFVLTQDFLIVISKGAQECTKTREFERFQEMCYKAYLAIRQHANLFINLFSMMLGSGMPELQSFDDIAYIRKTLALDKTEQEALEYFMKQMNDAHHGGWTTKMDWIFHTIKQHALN
T1 sequence (P27986 whole entry partner): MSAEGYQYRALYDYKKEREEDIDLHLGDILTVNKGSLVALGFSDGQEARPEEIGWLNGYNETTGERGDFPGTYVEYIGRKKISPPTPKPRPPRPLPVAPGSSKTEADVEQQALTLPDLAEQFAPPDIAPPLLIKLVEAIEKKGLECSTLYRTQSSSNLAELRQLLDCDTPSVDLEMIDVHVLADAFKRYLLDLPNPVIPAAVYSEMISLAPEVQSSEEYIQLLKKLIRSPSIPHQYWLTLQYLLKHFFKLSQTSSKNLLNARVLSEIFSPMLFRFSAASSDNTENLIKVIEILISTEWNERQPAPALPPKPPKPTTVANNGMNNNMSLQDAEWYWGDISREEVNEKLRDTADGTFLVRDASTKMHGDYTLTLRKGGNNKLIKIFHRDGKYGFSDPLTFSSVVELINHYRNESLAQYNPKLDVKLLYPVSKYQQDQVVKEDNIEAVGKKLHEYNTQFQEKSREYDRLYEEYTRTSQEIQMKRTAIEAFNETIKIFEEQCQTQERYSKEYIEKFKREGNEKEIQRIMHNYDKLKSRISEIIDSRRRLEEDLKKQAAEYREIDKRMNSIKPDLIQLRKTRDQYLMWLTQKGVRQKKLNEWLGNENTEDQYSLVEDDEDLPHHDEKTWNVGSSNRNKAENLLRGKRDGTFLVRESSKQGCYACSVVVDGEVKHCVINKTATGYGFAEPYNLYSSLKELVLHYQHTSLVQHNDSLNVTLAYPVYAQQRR

Row | Structure (SMILES) | inhibition at 0.01 µM [1] [%] | inhibition at 0.001 µM [2] [%] | inhibition at 0.01 µM [2] [%] | In vitro t1/2 [3] [h] | metabolic stability compared to dasatinib [3] | inhibition at 0.01 µM [4] [%] | inhibition at 0.01 µM [5] [%] | inhibition at 0.01 µM [6] [%] | inhibition at 0.001 µM [7] [%] | inhibition at 0.001 µM [8] [%] | inhibition at 0.01 µM [8] [%] | IC50 [9] [nM]
1 | Cc1nc(Nc2ncc(C(=O)Nc3c(C)cccc3Cl)s2)cc(N2CC[C@H](O)C2)n1 [Compound X, N-(2-chloro-6-methylphenyl)-2-[[2-methyl-6-((S)-3-hydroxypyrrolidin-1-yl)pyrimidin-4-yl]amino]thiazole-5-carboxamide] | > 50 | > 50 | > 50 | 1.45 | significantly greater stability | > 50 | > 50 | > 50 | > 50 | > 50 | > 50 | < 20
2 | Cc1nc(Nc2ncc(C(=O)Nc3c(C)cccc3Cl)s2)cc(N2CC[C@@H](O)C2)n1 [Compound XI, N-(2-chloro-6-methylphenyl)-2-[[2-methyl-6-((R)-3-hydroxypyrrolidin-1-yl)pyrimidin-4-yl]amino]thiazole-5-carboxamide] | > 50 | > 50 | > 50 | 0.983 | significantly greater stability | > 50 | > 50 | > 50 | > 50 | > 50 | > 50 | < 20
3 | Cc1nc(Nc2ncc(C(=O)Nc3c(C)cccc3Cl)s2)cc(N2CC[C@H](N)C2)n1 [Compound XII, N-(2-chloro-6-methylphenyl)-2-[[2-methyl-6-((S)-3-aminopyrrolidin-1-yl)pyrimidin-4-yl]amino]thiazole-5-carboxamide] | > 50 | > 50 | > 50 | – | significantly greater stability | > 50 | > 50 | > 50 | > 50 | > 50 | > 50 | < 20
4 | Cc1nc(Nc2ncc(C(=O)Nc3c(C)cccc3Cl)s2)cc(N2CC[C@@H](N)C2)n1 [Compound XIII, N-(2-chloro-6-methylphenyl)-2-[[2-methyl-6-((R)-3-aminopyrrolidin-1-yl)pyrimidin-4-yl]amino]thiazole-5-carboxamide] | > 50 | > 50 | > 50 | – | significantly greater stability | > 50 | > 50 | > 50 | > 50 | > 50 | > 50 | < 20
